Data as given in patent US11028079B2 (ConverGene LLC, priority 2015, dated 2021).

target: T1, BRD4 bromodomains (Homo sapiens, UniProt O60885); experiment: BROMOscan bromodomain competition binding assay (DiscoveRx); settings: Kd from 11 compound concentrations ranging from 0 to 10 μM, read-out: BROMOscan Relative Activity
T1 construct: fused on or other part: T7 phage capsid protein (phage-display fusion; the phage DNA is read out by qPCR)
In short: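 Compounds in 0.1% DMSO/0.9% MEG competed with a solid-phase acetylated peptide for T7 phage-fused BRD4 bromodomains, with the retained bromodomain measured by qPCR.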

Kd, < 500 nM:
Cc1noc(C)c1-c1ccc2nc(N3CCN(CCN(C)C)CC3)nc(N[C@H](CO)c3ccccc3)c2c1 [Example 173, (S)-2-((2-(4-(2-(dimethylamino)ethyl)piperazin-1-yl)-6-(3,5-dimethylisoxazol-4-yl)quinazolin-4-yl)amino)-2-phenylethanol]
Cc1noc(C)c1-c1ccc2nc(N3CCN(CCN(C)C)CC3)nc(N3CCCC3c3ccccc3)c2c1 (stereo not drawn) [Example 174, 2-(4-(6-(3,5-dimethylisoxazol-4-yl)-4-(2-phenylpyrrolidin-1-yl)quinazolin-2-yl)piperazin-1-yl)-N,N-dimethylethanamine]
Cc1noc(C)c1-c1ccc2nc(N3CCN(CCN(C)C)CC3)nc(N3CCCCC3c3ccccc3)c2c1 (stereo not drawn) [Example 175, 2-(4-(6-(3,5-dimethylisoxazol-4-yl)-4-(2-phenylpiperidin-1-yl)quinazolin-2-yl)piperazin-1-yl)-N,N-dimethylethanamine]
Cc1noc(C)c1-c1ccc2nc(C(=O)NCc3ncc[nH]3)nc(NCc3cccc(Cl)c3)c2c1 [Example 177, N-((1H-imidazol-2-yl)methyl)-4-((3-chlorobenzyl)amino)-6-(3,5-dimethylisoxazol-4-yl)quinazoline-2-carboxamide]
Cc1noc(C)c1-c1ccc2nc(NCc3ncc[nH]3)nc(NCc3cccc(Cl)c3)c2c1 [Example 178, N2-((1H-imidazol-2-yl)methyl)-N4-(3-chlorobenzyl)-6-(3,5-dimethylisoxazol-4-yl)quinazoline-2,4-diamine]
Cc1noc(C)c1-c1ccc2nc(N3CCN(CCN(C)C)CC3)nc(N3CCC3c3ccccc3)c2c1 (stereo not drawn) [Example 179, 2-(4-(6-(3,5-dimethylisoxazol-4-yl)-4-(2-phenylazetidin-1-yl)quinazolin-2-yl)piperazin-1-yl)-N,N-dimethylethanamine]
Cc1noc(C)c1-c1ccc2nc(N3CCN(S(C)(=O)=O)CC3)nc(NC3(c4cccc(Cl)c4)CC3)c2c1 [Example 180, N-(1-(3-chlorophenyl)cyclopropyl)-6-(3,5-dimethylisoxazol-4-yl)-2-(4-(methylsulfonyl)piperazin-1-yl)quinazolin-4-amine]
CNC(=O)Cn1cc(-c2nc(NC3(c4cccc(Cl)c4)CC3)c3cc(-c4c(C)noc4C)ccc3n2)cn1 [Example 181, 2-(4-(4-((1-(3-chlorophenyl)cyclopropyl)amino)-6-(3,5-dimethylisoxazol-4-yl)quinazolin-2-yl)-1H-pyrazol-1-yl)-N-methylacetamide]
Cc1noc(C)c1-c1ccc2nc(-c3cnn(CC(C)(C)O)c3)nc(NC3(c4cccc(Cl)c4)CC3)c2c1 [Example 182, 1-(4-(4-((1-(3-chlorophenyl)cyclopropyl)amino)-6-(3,5-dimethylisoxazol-4-yl)quinazolin-2-yl)-1H-pyrazol-1-yl)-2-methylpropan-2-ol]
Cc1noc(C)c1-c1ccc2nc(C(=O)NCc3cncn3C)nc(NCc3cccc(Cl)c3)c2c1 [Example 183, 4-((3-chlorobenzyl)amino)-6-(3,5-dimethylisoxazol-4-yl)-N-((1-methyl-1H-imidazol-5-yl)methyl)quinazoline-2-carboxamide]
CC(=O)N1CCN(c2nc(NCc3cccc(Cl)c3)c3cc(-c4c(C)noc4C)ccc3n2)CC1 [Example 184, 1-(4-(4-((3-chlorobenzyl)amino)-6-(3,5-dimethylisoxazol-4-yl)quinazolin-2-yl)piperazin-1-yl)ethanone]
CC(=O)N1CCN(c2nc(NC3(c4cccc(Cl)c4)CC3)c3cc(-c4c(C)noc4C)ccc3n2)CC1 [Example 185, 1-(4-(4-((1-(3-chlorophenyl)cyclopropyl)amino)-6-(3,5-dimethylisoxazol-4-yl)quinazolin-2-yl)piperazin-1-yl)ethanone]
Cc1noc(C)c1-c1ccc2nc(C(=O)NCc3cnn(C)c3)nc(NCc3cccc(Cl)c3)c2c1 [Example 186, 4-((3-chlorobenzyl)amino)-6-(3,5-dimethylisoxazol-4-yl)-N-((1-methyl-1H-pyrazol-4-yl)methyl)quinazoline-2-carboxamide]
Cc1ccncc1CNC(=O)c1nc(NCc2cccc(Cl)c2)c2cc(-c3c(C)noc3C)ccc2n1 [Example 187, 4-((3-chlorobenzyl)amino)-6-(3,5-dimethylisoxazol-4-yl)-N-((4-methylpyridin-3-yl)methyl)quinazoline-2-carboxamide]
Cc1noc(C)c1-c1ccc2nc(C(=O)NCc3cc(Cl)ccn3)nc(NCc3cccc(Cl)c3)c2c1 [Example 188, 4-((3-chlorobenzyl)amino)-N-((4-chloropyridin-2-yl)methyl)-6-(3,5-dimethylisoxazol-4-yl)quinazoline-2-carboxamide]
Cc1noc(C)c1-c1ccc2nc(C(=O)NCc3cccnc3)nc(NCc3cccc(Cl)c3)c2c1 [Example 189, 4-((3-chlorobenzyl)amino)-6-(3,5-dimethylisoxazol-4-yl)-N-(pyridin-3-ylmethyl)quinazoline-2-carboxamide]
Cc1noc(C)c1-c1ccc2nc(C(=O)NCc3cnn(C)c3C)nc(NCc3cccc(Cl)c3)c2c1 [Example 190, 4-((3-chlorobenzyl)amino)-N-((1,5-dimethyl-1H-pyrazol-4-yl)methyl)-6-(3,5-dimethylisoxazol-4-yl)quinazoline-2-carboxamide]
Cc1noc(C)c1-c1ccc2nc(C(=O)NCc3cncc(Cl)c3)nc(NCc3cccc(Cl)c3)c2c1 [Example 191, 4-((3-chlorobenzyl)amino)-N-((5-chloropyridin-3-yl)methyl)-6-(3,5-dimethylisoxazol-4-yl)quinazoline-2-carboxamide]
Cc1noc(C)c1-c1ccc2nc(C(=O)NCc3cncc(F)c3)nc(NCc3cccc(Cl)c3)c2c1 [Example 192, 4-((3-chlorobenzyl)amino)-6-(3,5-dimethylisoxazol-4-yl)-N-((5-fluoropyridin-3-yl)methyl)quinazoline-2-carboxamide]
Cc1cncc(CNC(=O)c2nc(NCc3cccc(Cl)c3)c3cc(-c4c(C)noc4C)ccc3n2)c1 [Example 193, 4-((3-chlorobenzyl)amino)-6-(3,5-dimethylisoxazol-4-yl)-N-((5-methylpyridin-3-yl)methyl)quinazoline-2-carboxamide]
Cc1nn(C)c(C)c1CNC(=O)c1nc(NCc2cccc(Cl)c2)c2cc(-c3c(C)noc3C)ccc2n1 [Example 194, 4-((3-chlorobenzyl)amino)-6-(3,5-dimethylisoxazol-4-yl)-N-((1,3,5-trimethyl-1H-pyrazol-4-yl)methyl)quinazoline-2-carboxamide]
CC(=O)N1CCN(c2nc(NCc3cncc(Cl)c3)c3cc(-c4c(C)noc4C)ccc3n2)CC1 [Example 195, 1-(4-(4-(((5-chloropyridin-3-yl)methyl)amino)-6-(3,5-dimethylisoxazol-4-yl)quinazolin-2-yl)piperazin-1-yl)ethanone]
Cc1nc(CNC(=O)c2nc(NCc3cccc(Cl)c3)c3cc(-c4c(C)noc4C)ccc3n2)cs1 [Example 196, 4-((3-chlorobenzyl)amino)-6-(3,5-dimethylisoxazol-4-yl)-N-((2-methylthiazol-4-yl)methyl)quinazoline-2-carboxamide]
Cc1ccc(CNC(=O)c2nc(NCc3cccc(Cl)c3)c3cc(-c4c(C)noc4C)ccc3n2)cn1 [Example 197, 4-((3-chlorobenzyl)amino)-6-(3,5-dimethylisoxazol-4-yl)-N-((6-methylpyridin-3-yl)methyl)quinazoline-2-carboxamide]
Cc1noc(C)c1-c1ccc2nc(C(=O)NC3CN(C)C3)nc(NCc3cccc(Cl)c3)c2c1 [Example 198, 4-((3-chlorobenzyl)amino)-6-(3,5-dimethylisoxazol-4-yl)-N-(1-methylazetidin-3-yl)quinazoline-2-carboxamide]
CC(=O)N1CCC(NC(=O)c2nc(NCc3cccc(Cl)c3)c3cc(-c4c(C)noc4C)ccc3n2)CC1 [Example 199, N-(1-acetylpiperidin-4-yl)-4-((3-chlorobenzyl)amino)-6-(3,5-dimethylisoxazol-4-yl)quinazoline-2-carboxamide]
Cc1noc(C)c1-c1ccc2nc(C(=O)NCC3CN(C)C3)nc(NCc3cccc(Cl)c3)c2c1 [Example 200, 4-((3-chlorobenzyl)amino)-6-(3,5-dimethylisoxazol-4-yl)-N-((1-methylazetidin-3-yl)methyl)quinazoline-2-carboxamide]
Cc1noc(C)c1-c1ccc2nc(C(=O)NC3CCN(S(C)(=O)=O)CC3)nc(NCc3cccc(Cl)c3)c2c1 [Example 201, 4-((3-chlorobenzyl)amino)-6-(3,5-dimethylisoxazol-4-yl)-N-(1-(methylsulfonyl)piperidin-4-yl)quinazoline-2-carboxamide]
Cc1noc(C)c1-c1ccc2nc(C(=O)NCc3ccnc(Cl)c3)nc(NCc3cccc(Cl)c3)c2c1 [Example 202, 4-((3-chlorobenzyl)amino)-N-((2-chloropyridin-4-yl)methyl)-6-(3,5-dimethylisoxazol-4-yl)quinazoline-2-carboxamide]
Cc1noc(C)c1-c1ccc2nc(C(=O)NCc3ccc(Cl)nc3)nc(NCc3cccc(Cl)c3)c2c1 [Example 203, 4-((3-chlorobenzyl)amino)-N-((6-chloropyridin-3-yl)methyl)-6-(3,5-dimethylisoxazol-4-yl)quinazoline-2-carboxamide]
